Experimental data as given in patent publication US4442093A, “Method for administering 24,25-dihydroxycholecalciferol to persons suffering from hypercalcemia” (Kureha Kagaku Kogyo Kabushiki Kaisha, priority 1981, dated 1984).
No end group written: not given here.

Tests used:
[1] = test system: calcium level in serum; assay: Prevention of hypercalcemia in rats administered with 1-α-(OH)-D3 (Example 4); format: in vivo, male Wistar rats; conditions: 1-α-(OH)-D3 10 µg/kg i.p. alone
Excerpt: In the present example, it is shown that 24R,25-(OH)2 -D3 has a function of preventing the occurrence of hypercalcemia on rats administered with 1-α-hydroxycholecalciferol (hereinafter referred to as 1-α-(OH)-D3).
Six subgroups of male Wistar rats of 130±30 g of body weight were subjected to the test while dividing the rats into 3 groups, each group consisting of 2 subgroups and each subgroup consisting of 5 animals. To the rats of the first group, after fasting for a night, an ethanolic solution of 1-α-(OH)-D3 was intraperitoneally administered at a dose rate of 10 micrograms of 1-α-(OH)-D3 /kg body weight. To the rats of the second group, a solution of 24R,25-(OH)2 -D3 in the triglyceride ester used in Example 1 was orally administered at a dose rate of 100 micrograms/kg body weight simultaneously with the same administration of 1-α-(OH)-D3 as in the rats of the first group.
The third group of the rats was used for control only with the oral administration of the triglyceride ester used in Example 1.

[2] = test system: thymus; assay: Weight ratio of thymus to body and number of thymocytes in rats given puromycin aminonucleoside (Example 11); format: in vivo, male JCL-Wistar rats; conditions: 100 µg/kg/day oral 12 days with puromycin aminonucleoside 15 mg/kg s.c.
Description: Thirty-two male JCL-Wistar rats in tenth week after birth were used in the present test while keeping them in a room at 21±1° C. and 60±5% RH with solid diet (CE 2) and water taken ad lib.
They were divided equally into 4 groups (one group consisting of 8 animals), their treatments in the test being as follows:
subcutaneous injection of puromycin aminonucleoside as in the second group and oral administration of 24R,25-(OH)2 -D3 dissolved in Panacete 810 once a day at a daily dose rate of 100 micrograms/kg for continuous 12 days.
subcutaneous injection of puromycin aminonucleoside as in the second group and oral administration of 24S,25-(OH)2 -D3 dissolved in Panacete 810 once a day at a daily dose rate of 100 micrograms/kg for continuous 12 days.
After uniformly loosing the thymus in phosphate buffer solution with a forcets and fully pipetting, the mixture was filtered through a stainless steel mesh (Tylar standard #200) and the filtrate containing the thymic cells was stained with Turk's solution. The thus stained specimen was subjected to counting under a microscope.

[3] = test system: thymic cells; assay: Pattern of the size of thymic cells by FACS (Example 12); format: in vivo, rats; conditions: 100 µg/kg/day oral 12 days with puromycin aminonucleoside
Description: After feeding the rats (the same number and the same grouping) of the same strain and treating them in the same manner as in Example 11, their thymus was resected, and an analysis of the pattern of the size of the thymic cells was carried out while using Fluorescence Activated Cell Sorter (FACS II, made by Becton-Dickinson Co.) as follows:
After loosing the resected thymus in phosphate buffer solution sufficiently with a pincette, pipetting well and passing the mixture through a standard #200 Tyler stainless steel mesh, the filtrate was treated with an aqueous 0.83% by weight ammonium chloride buffer solution containing tris-hydroxyaminomethane to carry out hemolysis of the erythrocytes intermingled therein followed by three times of washing with the phosphate buffer solution. After adjusting the concentration of the thus obtained thymic cell to 5×10^6 cells/ml with the addition of the phosphate buffer solution, the abovementioned analysis was carried out. The ratio of the number of living thymic cells to the total number of the thus obtained thymic cells was confirmed to be higher than 95% after staining with trypan blue and counting under microscope.

[4] = test system: mononucleates (lymphocytes) of peripheral blood; assay: Blastoid-transformation of rat lymphocytes in peripheral blood, 3H-TdR uptake (Example 13); format: in vivo
Description: The effect of the present compound on the blastoid-transformation of rat lymphocytes in the peripheral blood was examined as follows: After mixing each of the blood specimens taken from the respective rats of the four groups in Example 11 added with heparin and RPMI-1640 culture medium at a weight ratio of 1:1, the mixture was added to Ficoll-Paque solution, and the thus obtained mixture was subjected to centrifugal separation at 400 G for 20 min to collect the layer of mononucleates. After washing the thus collected mononucleates three times with PRMI-1640 culture medium (in a liquid state), the washed mononucleates were suspended into RPMI-1640 culture medium added with 10% by weight of calf serum to be in concentration of 1.5×10^6 cells/ml. Hundred microliters of the thus prepared suspension was placed in the pit of Pharcon microtest II plate, and after adding a substance promoting cell division (hereinafter referred to as mitogen) and RPMI-1640 culture medium added with 10% by weight of calf serum to the thus placed suspension to make the total volume 200 microliters, the thus prepared mixture was incubated for 72 hours under a gas (a 95:5 by volume mixture of air and carbon dioxide saturated with moisture) flow at 37° C. ^3 H-methylthymidine of specific activity of 5 Ci/mmol was added to the mixture during incubation at the time 24 hours before the incubation was over in an amount corresponding to 0.5 micro Ci. After the incubation was over, the cells in the culture were collected by filtering the cultured mixture, and the amount of radioactive isotope uptaken into the cells was determined by a liquid scintillation counter. For reference, the mitogen used in the present test is concanavalin A for T-cell or lipopolysaccharide for B-cell.

[5] = test system: gastric ulcer; assay: Prevention of gastric ulcer due to pyloric ligation (Example 9); format: in vivo, male Wistar rats; conditions: 200 µg/kg i.p. once after pyloric ligation, 15 h
Description: Twenty male Wistar rats of average body weight of 250 g were divided equally into two groups, and used in the following test:
After 36 hour fasting, all the rats were subjected to pyloric ligation, and the rats of the first group were administered with 2 ml/kg of Panacete®810 (triglyceride ester of C8 and C10 -fatty acid, made by Nippon Oil & Fats Co., Ltd.) containing 0.2% by weight of ethanol intraperitoneally once just after ligation. The rats of the second group were administered with 24R,25-(OH)2 -D3 dissolved in Panacete®810 containing 0.2% by weight of ethanol intraperitoneally at a dose rate of 200 micrograms/kg body weight once just after ligation. After 15 hours of administration, all the rats were subjected to gastrectomy, and the presence or absence of the gastroparietal ulcer was examined on all the resected stomach.
As a result, the occurrence of gastric ulcer was found on 9 rats of 10 rats of the first group, and on 2 rats of 10 rats of the second group.
In a similar test, 24S,25-(OH)2 -D3 was used instead of 24R,25-(OH)2 -D3 to examine its effect in preventing the occurrence of gastric ulcer due to pyloric ligation. As a result, the occurrence of gastric ulcer was recognized on 3 rats of 10 rats of the group similarly treated to those of the second group.

[6] = test system: ulcer found on the duodenum; assay: Healing of acetic acid induced duodenal ulcer (Example 10); format: in vivo, male rats; conditions: 20 µg/kg/day oral, 10 days
Description: Fourty five male rats of body weight of 240 to 260 g were equally divided into three groups, each consisting of 15 animals, and they were subjected to an operation following the method of Okabe et al. (refer to Amer. J. Dig. Dia., 16, 277, 1971), in which under anesthesia by ether, a circular frame made of a metal was placed on the serosa 5 to 7 mm from the pylorus and 0.06 ml of gracial acetic acid was poured onto the round part within the frame and after 30 sec, the acetic liquid was removed with the frame.
The thus operated rats of the first group were administered orally with a suspension of […] of 24R,25-(OH)2 -D3 in Panacete®810 containing 0.2% by weight of ethanol once a day for continuous 10 days from the third day of the operation at a daily dose rate of 20 micrograms of 24R,25-(OH)2 -D3 /kg. To the thus operated rats of the second group (control), only Panacete®810 was orally administered at a daily dose rate of 2 ml/kg for continuous 10 days.
The thus operated rats of the third group were used in the comparative test. Namely, they were treated in the same manner as those of the first group except for administration of gefarnate (3,7-dimethyl-2,6-octadienyl-5,9,13-trimethyl-4,8,12-tetradecatrienoate) at a daily dose rate of 20 microgram/kg body weight in stead of 24R,25-(OH)2 -D3 in the first group.
After finishing the final administration, all the rats were sacrificed by ether and their duodenum was taken out for autopsy. The length and the width of the ulcer found on the duodenum were measured, and their product with a unit of mm^2 was taken and named as the ulcer coefficient. The rate of healing of the ulcer was calculated by the following formula: [formula] wherein C is the ulcer coefficient of control and U is the ulcer coefficient of the group to which the present compound was administered.

[7] = test system: calcium level in serum; assay: Serum calcium in rats made hypercalcemic with Vitamin D3 (Example 1); format: in vivo, male Wistar rats; conditions: for Calcium level in serum: 24R 100 µg/kg oral, calcitonin 4 MRCU/kg s.c.
Description: To 16 subgroups of male Wistar rats of body weight of 150±40 g (one subgroup consisting of 5 rats), a solution of Vitamin D3 dissolved in corn oil at 600 micrograms/ml was orally administered once a day for continuous 4 days at a daily dose rate of 0.5 ml/100 g body weight to prepare the rats artifically suffering from hypercalcemia. After one day's fasting from the final administration of Vitamin D3, the calcium level in the serum of each rat of the first subgroup was on the average 13.5±0.4 mg/dl. The remaining 15 subgroups of the rats were divided into 3 groups each consisting of 5 subgroups and subjected to the following tests.
To the rats of the second group, a solution of porcine calcitonin in a physiological saline solution containing 4% by weight of gelatin was subcutaneously injected at a dose rate of 4 MRCU/kg body weight instead of the solution of 24R,25-(OH)2 -D3 and they were treated as those of the first group.
To the rats of the third group, only the same triglyceride ester as in the first group was orally administered, and they are treated in the same manner as in the first group.
The calcium level of the respective sera of the thus collected blood was determined by OCPC method (Orthocresol Phthalein Complexone method) and shown in Table 1.

[8] = test system: inorganic phosphate level in serum; conditions: after its administration; cited from earlier work
[9] = 100 µg/kg/day oral 12 days with puromycin aminonucleoside

C=C1/C(=C\C=C2/CCC[C@]3(C)[C@@H]([C@H](C)CCCC(C)C)CC[C@@H]23)C[C@@H](O)C[C@@H]1O [1-α-(OH)--D3, 1-α-hydroxycholecalciferol, reference compound]
Calcium level in serum ([1]; after 10 hours): 13.4 ± 0.6 mg/dL | Calcium level in serum ([1]; after 18 hours): 14.5 ± 0.5 mg/dL

C=C1CC[C@H](O)C/C1=C/C=C1\CCC[C@]2(C)[C@@H]([C@H](C)CC[C@H](O)C(C)(C)O)CC[C@@H]12 [24S,25-(OH)2 -D3]
Number of thymocytes [2]: (30 ± 4.5) × 10^7 | number ratio of cells a little larger than normal cell to total thymic cells [3]: the same as that of the control group | Uptake of 3H-TdR in presence of Concanavalin A [4, 9]: 3582 ± 362 cpm | Uptake of 3H-TdR in presence of Lipopolysaccharide [4, 9]: 3126 ± 351 cpm | Number of mononucleate (ratio, first group = 1.00) ([4]; po, 0.1 mg/kg, 288 h): 0.58 ± 0.15 | occurrence of gastric ulcer [5]: 3 rats of 10 rats

CC(C)=CCCC(C)=CCCC(C)=CCCC(=O)OCC=C(C)CCC=C(C)C [gefarnate, 3,7-dimethyl-2,6-octadienyl-5,9,13-trimethyl-4,8,12-tetradecatrienoate, reference compound]
ulcer coefficient [6]: 7.5 mm^2 | rate of ulcer healing ([6]; vs control): 0%

calcitonin: porcine calcitonin in physiological saline solution containing 4% by weight of gelatin (CSNLSTCVLSAYWRNLNNFHRFSGMGFGPETP; ends and bridges not checked; cysteine pairing not given here; UniProt P01259 1-32, looked up)
effect on raised serum calcium after 2 hours ([7]; 4 MRCU/kg s.c.): its effect was not recognized after 2 hours of its administration | Calcium level in serum ([7]; 2 h after administration): 10.8 ± 0.5 mg/dL | Calcium level in serum ([7]; 5 h after administration): 13.0 ± 0.4 mg/dL | Calcium level in serum ([7]; 8 h after administration): 13.4 ± 0.4 mg/dL | Calcium level in serum ([7]; 12 h after administration): 13.9 ± 0.5 mg/dL | Calcium level in serum ([7]; 24 h after administration): 13.4 ± 0.4 mg/dL | duration of strong reduction of serum inorganic phosphate level [8]: 2 to 3 h
